{"source": "ChEMBL document CHEMBL1128964", "about": "“Synthesis and analgesic activity of Epibatidine analogues” (Bioorg Med Chem Lett, 1996)", "key": {"[1]": {"test_system": "Mus musculus", "experiment": "Compound was tested for analgesic activity in mice after intraperitoneal administration at a dose of 10 ug/kg; less potent", "type": "functional, organism-based"}, "[2]": {"test_system": "Mus musculus", "experiment": "Compound was tested for analgesic activity in mice after intraperitoneal administration at a dose of 10 ug/kg; Significant", "type": "functional, organism-based"}, "[3]": {"experiment": "Lethal dose determined in Mice", "type": "toxicity", "conditions": "mouse, in vivo"}, "[4]": {"test_system": "Mus musculus", "experiment": "Dose of compound that caused analgesic activity in mice after intraperitoneal administration", "type": "functional"}}, "note": "The source made the active and inactive calls. The rule behind the calls is not given here.", "data": [{"smiles": "Clc1ccc(C2CCNC2)cn1", "note": "(centres undefined)", "values": [{"measurement": "Activity", "setting": "[1]", "result": "less potent"}]}, {"smiles": "Clc1ccc(C2CC3CCC2N3)cn1", "note": "(racemic)", "values": [{"measurement": "Activity", "setting": "[2]", "result": "Active"}]}, {"smiles": "Clc1ccc(C2CC3CCCC2N3)cn1", "note": "(centres undefined) [HOMOEPIBATIDINE]", "values": [{"measurement": "LD50", "setting": "[3]", "result": 10, "unit": "mg/kg"}, {"measurement": "Dose", "setting": "[4]", "result": 0.04, "unit": "mg/kg"}]}]}
